The source of these data is article PMC11984924, “Dipeptidic Phosphonates: Potent Inhibitors of Pseudomonas aeruginosa Elastase B Showing Efficacy in a Murine Keratitis Model” (Advanced Science, 2025).

“And” between values parts separate entries of the source, which are not always exact repeats. Equal values may be shown once.

In series [1] the test system is A549 cells. Kind of series: Cytotoxicity A549. The note with it: Homo sapiens, A549, read-out: A549 % inhibition at 100 µM (metabolic activity), 48 hours. Type of series: cell-based. As to the method:
HepG2 (human hepatocellular carcinoma), HEK293 (human embryonal kidney) and A549
(human lung carcinoma) cells (2x10^5 cells per well) were seeded in 24-well in flat-bottomed
plates. Culturing of cells, incubations and OD measurements were performed as described
previously with small modifications.[14] Twenty-four hours after seeding the cells the incubation
was started by the addition of compounds in a final DMSO concentration of 1%. The living cell
mass was determined after 48 hours in a PHERAstar microplate reader (BMG labtech,
Ortenberg, Germany). Two independent measurements were performed for each compound.

Series [2] deals with T1, TACE (ADAM17) (Homo sapiens, UniProt P78536).
T1 construct: purchased Sigma-Aldrich (Saint Louis, MO)
Kind of series: TACE (ADAM17) inhibition (off-target). Type of series: biochemical. The note with it: read-out: TACE (ADAM17) % inhibition at 100 µM. As to the method: (§1) 3.1 In vitro inhibition assays
(§2) LasB was expressed and purified as described previously.[3] In vitro inhibition assays (LasB, MMPs, TACE). All in vitro inhibition assays were performed as described previously.[10] TACE inhibitor screening kits were purchased from Sigma-Aldrich (Saint Louis, MO). MMPs along with the SensoLyte 520 Generic MMP Activity Kit Fluorimetric were purchased from AnaSpec (Fremont, CA, USA). The assays were performed according to the guidelines of the respective manufacturer. Fluorescence signals were measured using a CLARIOstar plate reader (BMG Labtech, Ortenberg, Germany). […]
(§3) 3.8 Test against zinc metalloproteases MMP1–3 and TACE (ADAM17), and testing of
(§4) We selected a panel of human off -targets, including three human matrix metalloproteases (MMP-1, -2 and -3) and TACE (ADAM-17). These assays were performed as described previously.[3] The TACE inhibitor screening kit was purchased from Sigma -Aldrich (Saint Louis, MO). MMPs along with the SensoLyte 520 Generic MMP Activity Kit Fluorimetric were purchased from AnaSpec (Fremont, CA, USA). The assays were performed according to the guidelines of the respective manufacturer. Fluorescence signals were measured using a CLARIOstar plate reader (BMG Labtech, Ortenberg, Germany). […]
(§5) Table S6: Percent (%) inhibition of three MMPs (1 –3) and TACE (ADAM17) in presence of selected LasB inhibitors at 100 µM. Results are means and SD of at least two independent experiments. […]
(§6) Compound [% inhibition at [% inhibition at [% inhibition at [% inhibition at 100

A short description of series [3]: Plasma stability, mouse. It is filed as in vitro ADME. The note with it: CD-1, read-out: Plasma t1/2 Mouse. As to the method: (§7) To determine stability in plasma, the compound (1 µM) was incubated with pooled CD -1 […]
(§8) mouse/human/Wistar rat or Göttingen minipig plasma (Neo Biotech, Nanterre, France).
(§9) Samples were taken by mixing aliquots with 4 volumes of acetonitrile containing internal […]
(§10) standard (125 nM diphenhydramine). The plasma stability of procain, propantheline and diltiazem were determined in parallel to confirm the enzymatic activity. Samples were stored […]
(§11) on ice until the end of the incubation and precipitated protein was removed by centrifugation […]
(§12) (15 min, 4 °C, 4,000 g, two centrifugation steps). Concentration of the remaining test compound at the different time points was analyzed by HPLC-MS/MS (TSQ Quantum Access MAX, […]
(§13) Thermo Fisher, Dreieich, Germany) and used to determine half-life (t1/2).
(§14) Table S2: Additional in vitro ADMET data for selected dipeptides. n.d.: not determined.
(§15) Kinetic Liver S9 Clint [µL/mg/min] Plasma t1/2 [min] LogD7.4 […]
(§16) pH 7.4 [µM] Mouse Human Mouse Human

Series [4] addresses T2, MMP-1 (Homo sapiens, UniProt P03956).
T2 construct: purchased AnaSpec (Fremont, CA, USA)
T2 sequence (P03956 100-469): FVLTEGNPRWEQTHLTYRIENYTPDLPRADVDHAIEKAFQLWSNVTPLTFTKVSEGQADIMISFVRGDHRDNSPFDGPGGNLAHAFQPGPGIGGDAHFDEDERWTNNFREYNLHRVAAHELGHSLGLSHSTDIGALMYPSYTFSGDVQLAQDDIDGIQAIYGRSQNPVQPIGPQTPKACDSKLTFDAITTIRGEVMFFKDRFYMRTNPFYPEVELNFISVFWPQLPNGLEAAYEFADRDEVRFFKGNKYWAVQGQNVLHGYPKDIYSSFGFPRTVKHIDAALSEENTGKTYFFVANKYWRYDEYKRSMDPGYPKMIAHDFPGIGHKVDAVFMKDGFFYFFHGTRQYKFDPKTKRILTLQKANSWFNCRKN
Kind of series: MMP-1 inhibition (off-target). The note with it: read-out: MMP-1 % inhibition at 100 µM. Type of series: biochemical. As to the method: as §1, §2, §3, §4, §5, §6

The test system of series [5] is Pseudomonas aeruginosa strain PA14. The series is described as follows: Antibacterial effect on P. aeruginosa PA14 growth. Type of series: cell-based. The note with it: PA14, read-out: P. aeruginosa PA14 % inhibition of growth at 100 µM, 18 h, 37 °C. As to the method: Table S14: Food consumption after treatment with (R)-30.
Table S15: Body and organ weights (gram) after treatment with (R)-30.
3.12 Antibacterial effects
As start OD600 of Pseudomonas aeruginosa strain PA14 we used 0.03 in a total volume of 200
µL in lysogeny broth containing the compounds predissolved in DMSO (max. 1%). Final
compound concentrations prepared from serial dilutions ranged from 3.125 to 100 µM (double
values for each concentration). The ODs were determined after addition of the compounds and
again after incubation for 18 h at 37 °C and 200 rpm in 96 well plates (Sarstedt, Nümbrecht,
Germany) using a FLUOStar Omega (BMG labtech, Ortenberg, Germany). Given percent (%)
inhibition values are means of at least two independent determinations. To obtain the values
for a given compound, their ODs were compared to those of DMSO controls. Concerning the […]

The nature of series [6]: Kinetic solubility in PBS pH 7.4. Type of series: physicochemical. As to conditions: aqueous buffer, kinetic from dmso stock. As to the method: The desired compounds were sequentially diluted in DMSO in a 96-well plate. 1.5 µL of each well were transferred into another 96-well plate and mixed with 148.5 µL of PBS. Plates were shaken for 5 min at 600 rpm at room temperature (r.t.), and the absorbance at 620 nm was measured. Absorbance values were normalized by blank subtraction and plotted using GraphPad Prism 8.4.2 (GraphPad Software, San Diego, CA, USA). […]

A short description of series [7]: Plasma stability, human. The note with it: read-out: Plasma t1/2 Human. Type of series: in vitro ADME. As for the experimental part:
as §7, §8, §9, §10, §11, §12, §13, §14, §15, §16

Series [8] addresses T3, LasB (Pseudomonas aeruginosa, UniProt Q02RJ6).
T3 construct: made in house
The series is described as follows: In vitro LasB inhibition assay. Type of series: biochemical. As to conditions: IC50 LasB inhibition. As for the experimental part: as §1
LasB was expressed and purified as described previously.[3] In vitro inhibition assays (LasB,
MMPs, TACE). All in vitro inhibition assays were performed as described previously.[10] […]
Fluorescence signals were measured using a CLARIOstar plate reader (BMG
Labtech, Ortenberg, Germany). […]

Series [9] in a line: Lipophilicity determination (HPLC-based LogD7.4). Type of series: physicochemical. As to conditions: C18 column; pH 7.4, HPLC-based.
Description: 3.3 Lipophilicity determination
LogD7.4 was analyzed using an HPLC−based method. The UV retention time of reference compounds with known LogD7.4 was determined and plotted toward their LogD7.4. Linear regression was used to determine the LogD7.4 of unknown compounds. Analysis was performed using a Vanquish Flex HPLC system with variable wavelength detector (Thermo Fisher, Dreieich, Germany) with the following conditions: EC150/2 NUCLEODUR C18 Pyramid column, 5 μM (Macherey Nagel, Düren, Germany); eluent A: 50 mM NH4OAc pH 7.4, eluent B: acetonitrile, and flow: 0.6 mL/min.

T1 sequence (P78536 215-824): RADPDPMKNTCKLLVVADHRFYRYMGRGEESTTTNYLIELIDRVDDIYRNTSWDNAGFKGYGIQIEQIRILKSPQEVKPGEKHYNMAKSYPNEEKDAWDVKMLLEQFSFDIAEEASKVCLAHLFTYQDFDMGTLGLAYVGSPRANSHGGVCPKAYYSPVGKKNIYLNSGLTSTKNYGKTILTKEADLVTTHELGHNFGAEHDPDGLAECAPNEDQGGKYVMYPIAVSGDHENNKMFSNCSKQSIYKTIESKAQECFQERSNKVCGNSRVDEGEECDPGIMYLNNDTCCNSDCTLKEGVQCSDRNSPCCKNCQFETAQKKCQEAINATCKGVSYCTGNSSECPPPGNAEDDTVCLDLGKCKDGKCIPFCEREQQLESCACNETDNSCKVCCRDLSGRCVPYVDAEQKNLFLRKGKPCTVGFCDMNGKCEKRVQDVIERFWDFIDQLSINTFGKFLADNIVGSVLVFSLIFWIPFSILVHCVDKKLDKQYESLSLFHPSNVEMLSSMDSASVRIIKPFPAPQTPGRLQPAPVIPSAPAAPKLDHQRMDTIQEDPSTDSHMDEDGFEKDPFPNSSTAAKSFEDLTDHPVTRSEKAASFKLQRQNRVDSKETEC
T3 sequence (Q02RJ6 198-498): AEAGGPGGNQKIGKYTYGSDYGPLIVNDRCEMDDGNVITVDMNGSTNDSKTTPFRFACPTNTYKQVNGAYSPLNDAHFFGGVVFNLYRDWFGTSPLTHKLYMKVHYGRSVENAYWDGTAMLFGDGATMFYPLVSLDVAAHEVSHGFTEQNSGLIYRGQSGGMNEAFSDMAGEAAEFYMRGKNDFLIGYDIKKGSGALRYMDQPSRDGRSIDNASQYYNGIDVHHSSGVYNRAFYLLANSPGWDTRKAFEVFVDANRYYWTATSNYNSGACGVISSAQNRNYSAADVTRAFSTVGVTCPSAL

Turning to `CC(=O)c1ccc(NC(=O)[C@@H](NC(=O)[C@@H](CC(C)C)P(=O)(O)O)C(C)C)cc1` [(R)‐30], the inhibition (commonly the relative decrease from the control value, in per cent) at 100 µM in series [1] was less than 10%; in series [2] it was 13 ± 2%; in [4] it was less than 10%; in series [5], less than 10%. Moreover, the half-life at 1 µM in series [3] and in series [7] was greater than 2.5 h in each case. Moreover, the solubility (kinetic) – broadly, solubility judged after dilution from a stock solution rather than from solid – at 5 min in series [6] was greater than 200 µM. Moreover, the IC50 – broadly, the concentration that inhibits the measured activity by half – in series [8] was 4 nM and 3.7 nM.
With `CC(C)CC(C(=O)N[C@H](C(=O)Nc1ccc(Cl)c(Cl)c1)C1CCCCC1)P(=O)(O)O` (some centres unmarked) [compound 14], the inhibition at 100 µM in series [1], in series [2], in series [4] and in series [5] was less than 10% throughout. Moreover, the half-life at 1 µM in [3] and in [7] was greater than 2.5 h each time. The same molecule returned a kinetic solubility at 5 min in series [6] greater than 200 µM. In addition, the IC50 in series [8] is 12.4 ± 0.3 nM. Also, the chromatographic logD (commonly lipophilicity estimated from chromatographic retention) in series [9] is 1.14.
As for `CC(=O)c1ccc(NC(=O)[C@@H](NC(=O)C(CC(C)C)P(=O)(O)O)C(C)C)cc1` (some centres unmarked) [compound 30], the inhibition at 100 µM in series [1] was less than 10%; in [2] it was 13 ± 4%; in [4], less than 10%; in series [5], less than 10%. For the same molecule, the half-life at 1 µM in series [3] and in series [7] was greater than 2.5 h throughout. Further, the kinetic solubility at 5 min in series [6] is greater than 200 µM. The molecule also displayed a concentration for half-maximal inhibition (IC50) in [8] of 5 ± 0.2 nM.
`CC(C)CC(C(=O)N[C@H](C(=O)Nc1ccc(Cl)c(Cl)c1)C(C)C)P(=O)(O)O` (some centres unmarked) [compound 9]: the inhibition at 100 µM is less than 10% in series [1], less than 10% in [2], 13 ± 1% in [4] and less than 10% in series [5]. In addition, the half-life at 1 µM in series [3] and in series [7] was greater than 2.5 h throughout. The same molecule yielded a kinetic solubility at 5 min in series [6] greater than 200 µM.
For `CC(C)C[C@H](C(=O)N[C@H](C(=O)Nc1ccc(-n2ccnc2)cc1)C(C)C)P(=O)(O)O` [(R)‐36], the inhibition at 100 µM in [1], in series [2], in [4] and in [5] was less than 10% each time. Besides, the half-life at 1 µM in series [3] and in series [7] was greater than 2.5 h in each case. The kinetic solubility at 5 min in [6] was greater than 200 µM. The same molecule had an IC50 in series [8] of 10.9 ± 0.3 nM. Moreover, the chromatographic logD in [9] was -0.67.
In the case of `CC(C)CC(C(=O)N[C@H](C(=O)Nc1ccc(Cl)c(Cl)c1)C1CCC1)P(=O)(O)O` (some centres unmarked) [compound 13], the inhibition at 100 µM in [1], in series [2], in [4] and in series [5] was less than 10% in each case. Moreover, the half-life at 1 µM in series [3] and in series [7] was greater than 2.5 h in each case. This molecule yielded a solubility (kinetic) at 5 min in series [6] greater than 200 µM. In [8], this molecule registered an IC50 of 11.9 ± 0.3 nM. Also, the chromatographic logD in series [9] is -0.58.
